In ChEMBL document CHEMBL2448809, “UCSF DeRisi Lab MMV Box Apicoplast Screening”:

System: Plasmodium falciparum
Assay: MMV: Compounds (1uM) were screened in a 72hr growth assay monitored by flow cytometry both in the presence and absence of supplemental isopentenyl pyrophosphate (IPP) 200uM. Compounds which fail to show anti-malarial activity when chemically rescued by IPP are therefore specific to the apicoplast. The values are expressed as the ratio of the corresponding activity with and without IPP, respectively.
Type: functional, W2

Structure (SMILES)	Ratio
COc1ccc2c(c1)C1(Nc3ccccc3-c3nc4ccccc4n31)C(=O)N2 (centres undefined)	0.9667
COc1cccc(Cn2c(Oc3ccccc3)nc3c2c(=O)n(C)c(=O)n3C)c1	0.9255
CCOc1c(Cl)cc(CNCC(O)c2ccccc2)cc1OC (centres undefined)	0.8286
OC(CNCC1CCCO1)Cn1c2ccc(Cl)cc2c2cc(Cl)ccc21 (centres undefined)	0.8732
COc1ccc2nc(C)cc(Nc3ccccc3O)c2c1	0.7711
CCn1nc(-c2ccc(C(=O)OC)cc2)nc2c(=O)n(C)c(=O)nc1-2	1.058
CCOc1ccccc1CN1CCc2nc3cc(C(C)(C)C)nn3c(O)c2C1	0.8444
Cc1cc(N2CCCC2)nc(Nc2ccc(NC(=O)CCc3ccccc3)cc2)n1	0.9077
CN1CCN(c2ncnc3c2[nH]c2ccc(Cl)cc23)CC1	0.9492
CC1(c2ccccc2)Nc2ccccc2-c2nc3ccccc3n21 (centres undefined)	1.062
CC(C)(C)CC(C)(C)NCC(O)COc1ccc(Cl)cc1Cl (centres undefined)	0.8983
O=C1c2ccccc2-c2nnc(-c3ccc(Br)cc3)cc21	0.8889
O=C(Nc1ccc(Br)cc1)Nc1cccc(Cl)c1	1.104
CN(C)CCNc1cc(-c2ccccc2)nc2ccccc12	1.015
CCOC(=O)C1=C(C)N=c2sc(=Cc3ccccc3O)c(=O)n2C1c1ccc(OC)c2ccccc12 (centres undefined)	1.667
CCOC(=O)C1=C(C)N=c2sc(=Cc3cc(Cl)ccc3O)c(=O)n2C1c1ccc(OC)cc1 (centres undefined)	1.255
Cc1nc2ccccc2c(O)c1CC=C(Cl)Cl	1.066
FC(F)(F)c1cccc(Nc2nc3ccccc3nc2Nc2cccc(C(F)(F)F)c2)c1	1.08
COc1ccc2nc(C)cc(Nc3ccc(Cl)cc3)c2c1	0.8189
CCC(O)c1ccc(Br)cc1NC(=O)c1cccc(Cl)c1 (centres undefined)	1
COc1ccc2nc(C)cc(Nc3cccc(O)c3)c2c1.Cl	1.191
CN(C)CCCNCc1ccc(-c2ccc(F)c(Cl)c2)o1.Cl	0.75

Structure (SMILES)	Ratio
O=c1nc(C=Cc2ccc(Br)cc2)oc2ccccc12	1.133
COc1ccc2nc(N)nc(C)c2c1	0.8974
CC(=O)c1ccc(NC(=O)CSc2nc(-c3ccccc3Cl)ns2)cc1	1.02
Cc1sc2ncnc(Sc3nc4ccccc4[nH]3)c2c1C	0.9273
COc1ccc(C(=O)NC(c2ccc(Cl)cc2Cl)c2cc(Cl)c3cccnc3c2O)cc1 (centres undefined)	0.9814
CCC(=O)Nc1nnc(Cc2ccc(OC)c(OC)c2)s1	0.7213
Cl.c1ccc2c(NCCCCCCNc3c4c(nc5ccccc35)CCCC4)c3c(nc2c1)CCCC3	1.108
O=C(NCCCN1CCC(N2CCCCC2)CC1)C1=Cc2cc(Br)ccc2OC1	0.8966
Cc1ccnc(NC(c2cccc(OCc3ccccc3)c2)c2ccc3cccnc3c2O)c1 (centres undefined)	1.558
Nc1ccc(-c2nc3cc(Cc4ccc5[nH]c(-c6ccc(N)cc6)nc5c4)ccc3[nH]2)cc1	1.333
CCCCOC(=O)c1ccc(Nc2cc(C)nc3ccc(OC)cc23)cc1	1.132
O=C(Nc1ccc(CN2CCOCC2)cc1)c1ccc(-c2cc(Cl)ccc2Cl)o1	0.9054
Cc1cc(Nc2cccc(F)c2)nc(NCc2ccccc2)n1	0.8333
O=c1cc(NC2CCN(CCCc3ccccc3)CC2)c2cc(Cl)ccc2o1	1.019
Cc1ccc(OCCCCCCNCCO)c(C)c1	0.8556
COc1ccc(C2NCCc3c2[nH]c2ccccc32)cc1CN1CCN(c2ccc(F)cc2)CC1.Cl (centres undefined)	0.8727
COc1cccc(C(=O)Nc2ccc(-c3nc4ccccc4[nH]3)cc2)c1	0.7651
COCCn1c(C)nc2ccccc2c1=O	0.9589
O=C(Nc1cccc(-c2nc3ccccc3[nH]2)c1)c1cccc(NC(=O)c2ccco2)c1	0.6407
O=C(NC1CCN(Cc2ccccc2)CC1)c1cc(-c2cccnc2)nc2ccc(Cl)cc12	0.7184
CCN(Cc1ccccc1)C1CCN(Cc2cc(Br)ccc2O)CC1.O=C(O)C(=O)O	0.9701
CCOc1ccc(-n2cc(-c3ccccc3)c3c(SCc4cc(C)ccc4C)ncnc32)cc1	0.9394

Structure (SMILES)	Ratio
Cc1ccc(C)c(Cn2c(N3CCC(C(=O)NCc4cccs4)CC3)nc3ccccc32)c1	1
CC1CCN(Cc2c(O)ccc3cc(-c4nc5ccccc5s4)c(=O)oc23)CC1	1.058
Cc1ccc2cc3c(N)c4c(C)ccc(C)c4nc3nc2c1	1.095
CC(C)CCNCC(O)Cn1c2ccccc2c2ccccc21.Cl (centres undefined)	0.9245
COc1ccc(C2C(C(=O)Nc3cccc(OC)c3)c3ccccc3C(=O)N2C2CCCCC2)cc1 (centres undefined)	0.7969
CCOC(=O)c1cnc2ccc(Cl)cc2c1NCCCN(C)C	1.179
CCOc1ccccc1NC(=O)CN1CCN(C(=O)c2ccco2)CC1	0.906
c1ccc2c(NCCc3c[nH]c4ccccc34)c3ccccc3nc2c1	1.057
O=C(Nc1ccc(C23CC4CC(CC(c5ccccc5)(C4)C2)C3)cc1)c1cccs1	0.9231
O=C1c2ccccc2C2=Nc3ccccc3SC(c3cccc(F)c3)C12 (centres undefined)	0.8676
Cc1ccccc1OCCSc1nc2ccc(NC(=O)c3ccccc3)cc2s1	0.8842
CCOC(=O)c1cnc2c(C)cccc2c1Nc1ccc(C(C)=O)cc1	1.3
COc1ccc(-c2nonc2NC(=O)c2cccc(Cl)c2)cc1OC	0.9
Cc1cc(NC(=O)c2ccc(-c3ccccc3)cc2)no1	0.9841
CCOc1cc2c(cc1OCC)C(c1cc(C)c(O)c(C)c1)NCC2.Cl (centres undefined)	1.148
O=C1CC(O)(C(F)(F)C(F)(F)F)Oc2ccccc21 (centres undefined)	0.8205
COc1cc(SC)ccc1C(=O)N1CCCC(C)C1 (centres undefined)	0.6888
Cc1ccc(C2CC(C(F)(F)F)n3nc(C(=O)N4CCN(C(c5ccccc5)c5ccccc5)CC4)cc3N2)cc1 (centres undefined)	0.725
Cc1ccc2nc(C)cc(Nc3cccc(C(F)(F)F)c3)c2c1.Cl	0.875
CC(C)c1ccc(CNCC(O)c2ccccc2)cc1.Cl (centres undefined)	0.9296
CC(C)(C)c1ccc(C(=O)Nc2c3c(nn2-c2cccc(Cl)c2)CSC3)cc1	0.9138
CCOc1cc2c(cc1OCC)C(c1cc(Cl)c(O)c(OCC)c1)NCC2 (centres undefined)	0.8824

Structure (SMILES)	Ratio
COc1ccc(N2CCN(C(CNC(=O)CC(C)(C)C)c3ccc4c(c3)OCO4)CC2)cc1 (centres undefined)	0.8841
COc1cccc(C(=O)NC(c2ccc(C)cc2)c2cc(Cl)c3cccnc3c2O)c1 (centres undefined)	1.1
CCCCCCn1c(=N)n(CC(O)COc2cccc(C)c2)c2ccccc21.Cl (centres undefined)	0.9831
Cc1ccc(NC(=O)Nc2cccc(Cl)c2)cc1F	0.9455
O=C(O)C(=O)O.Oc1ccc(Br)cc1CN1CCN(Cc2cccc(F)c2)CC1	0.8333
COc1ccc(-c2cc(=O)oc3c4c(ccc23)OCN(Cc2ccc(F)cc2)C4)cc1	0.9508
CCOC(=O)C1(Cc2ccccc2)CCN(Cc2cccc(OC)c2O)CC1	0.7015
Oc1ccc(C(=C(Cl)Cl)c2ccc(O)cc2)cc1	1.113
CCOc1ccc2c(c1)CN(Cc1ccc(Cl)cc1)CO2	0.8361
CC(C)(C)c1ccc2c(c1)CN(Cc1ccc(Cl)cc1)CO2	0.8966
CCCCC(O)(c1ccc(Cl)cc1)C(CN1CCOCC1)c1ccc(Cl)cc1.Cl (centres undefined)	1.074
O=c1nc(C=Cc2ccc(Cl)cc2)oc2ccccc12	0.9697
O=C(NCc1ccco1)C1CCN(S(=O)(=O)c2ccc(Br)cc2)CC1	0.7733
CN(C)c1ccc(N2C(N)=NC(N)=NC2(C)C)cc1	0.7632
COc1ccc(Nc2nc(NCc3ccccc3)c3ccccc3n2)cc1	1.093
COc1ccc(OC)c(C2C3=C(CC(C)(C)CC3=O)N(c3ccc(Cl)c(Cl)c3)C3=C2C(=O)CC(C)(C)C3)c1	0.9277
Cc1cc(=O)oc2c1ccc1oc(C(=O)c3ccccc3)c(C)c12	1.067
COc1ccc(CN2CCN(Cc3ccccc3)CC2)c(O)c1	1.283
COc1cc2c(cc1OC)C1=NNC(=O)C1=NC(C)(C)C2	1.994
COc1ccc2c(c1OC)C(=O)N1c3ccccc3N=C(c3ccc(C)cc3)CC21 (centres undefined)	1.052
Oc1c(CN2CCN(c3ccccc3F)CC2)cc(Br)c2cccnc12	0.8919
CCCCCCc1cc(O)c2c3c(c(=O)oc2c1)CCC(C)C3 (centres undefined)	1.073

Structure (SMILES)	Ratio
Cl.OC(CNCc1ccccc1)Cn1c2ccccc2c2ccccc21 (centres undefined)	0.9403
CCCc1c(C)nc2ccc(Br)cc2c1O	1
COc1ccc(CCNC(=O)c2cc(S(=O)(=O)N3CC(C)CC(C)C3)ccc2Sc2ccc(F)cc2)cc1OC (centres undefined)	1.061
Oc1c2c(nc3cc(-c4ccccc4)nn13)CCCC2	0.8046
CCOc1ccc(Nc2c3ccccc3nc3ccccc23)cc1.Cl	1
CC1=C(CC(=O)c2cccc([N+](=O)[O-])c2)C(=O)c2ccccc2C1=O	1.085
CCCCc1c(C)nc2c(OC)cccc2c1O	0.8472
OC1CCCCC1C1(NC(=S)Nc2ccccc2)CCCCC1 (centres undefined)	0.9298
OC1=C2C(=Nc3ccccc3SC2c2ccc(Br)cc2)c2ccccc21 (centres undefined)	1.068
COc1ccc(C)c2sc(N(Cc3cccnc3)C(=O)c3ccc(C#N)cc3)nc12	0.971
Clc1ccc2c(N3CCCC3)ccnc2c1	0.8475
CCOC(=O)C1CCN(C(=O)CN2C(=O)c3ccccc3C2c2c[nH]c3ccccc23)CC1 (centres undefined)	0.6812
CCOc1ccc(CCNC(=O)c2cccs2)cc1OCC	1.073
COc1ccc(C(=O)C2CC2c2ccc(Cl)cc2)cc1 (centres undefined)	1.308
CCCCCn1c(=N)n(CC(O)COc2cccc(C)c2)c2ccccc21.Cl (centres undefined)	1.128
O=c1c2c([nH]c3ccccc13)CCCC2	0.8986
COc1ccccc1N1C(=N)SC(=Cc2ccc(OCc3ccccc3F)cc2)C1=O	1.033
CCN1CCN(c2c(C(=O)c3ccccc3)cnc3cc(OC)c(OC)cc23)CC1	0.9828
Cc1c(C)n(CC(O)CNC2CCCCC2C)c2ccccc12 (centres undefined)	0.9649
Cc1ccc(S(=O)(=O)c2c(COC(=O)c3cccc(C)c3)c(-c3ccccc3)nn2C)cc1	0.9265
CCCCN(CCCC)S(=O)(=O)c1ccc(NC(=O)c2ccco2)cc1	0.8649
